Assay results from patent US9850283B2, “Macrocyclic inhibitors of the PD-1/PD-L1 and CD80(B7-1)/PD-L1 protein/protein interactions” (BRISTOL-MYERS SQUIBB COMPANY, priority 2013, dated 2017).
Like-named read-outs stand apart in the source and are kept apart here. Starred links: 1 amine or outer side, 2 acyl side, 3 side chain; linkers in the order of their positions; H or OH if unused. Positions of bridges follow the written chain, without caps; N, C: chain ends. Non-standard residues stand in square brackets, D forms with d. Residues, ends and D or L forms follow the SMILES beside them. ξ: configuration not given here. PEG12 = NCCOCCOCCOCCOCCOCCOCCOCCOCCOCCOCCOCCOCCC(=O)O; ξPro(4R-NH2) = O=C(C1C[C@@H](N[*:3])CN1[*:1])[*:2]; Phe(4-Cl) = N[C@@H](Cc1ccc(Cl)cc1)C(=O)O; Phe(4-Me) = Cc1ccc(C[C@H](N)C(=O)O)cc1; Bta = N[C@@H](Cc1csc2ccccc12)C(=O)O; Hyp = O=C(O)[C@@H]1C[C@@H](O)CN1; NMeF = CN[C@@H](Cc1ccccc1)C(=O)O; NMeNle = CCCC[C@H](NC)C(=O)O; αMeP = C[C@@]1(C(=O)O)CCCN1; NMeA = CN[C@@H](C)C(=O)O; ξPip = O=C(O)C1CCCCN1; ξP = O=C(O)C1CCCN1; Sar = CNCC(=O)O

Biological target: T1, Human PD-L1/PD-1 (Homo sapiens, UniProt Q9NZQ7)
T1 construct: made in house; host or cells: HEK293T
Test: HTRF PD-1-Ig/PD-L1-His binding assay (human PD-L1)
Source text: The ability of the macrocyclic peptides of the present disclosure to bind to PD-L1 was investigated using a PD-1/PD-L1 Homogenous Time-Resolved Fluorescence (HTRF) binding assay.
Homogenous Time-Resolved Fluorescence (HTRF) Assays of Binding of Soluble PD-1 to Soluble PD-L1. Soluble PD-1 and soluble PD-L1 refers to proteins with carboxyl-end truncations that remove the transmembrane-spanning regions and are fused to heterologous sequences, specifically the Fc portion of the human immunoglobuling G sequence (Ig) or the hexahistidine epitope tag (His). All binding studies were performed in an HTRF assay buffer consisting of dPBS supplemented with 0.1% (w/v) bovine serum albumin and 0.05% (v/v) Tween-20. […] PD-L1 fusion proteins from either human, cynomologous macaques, or mouse were used. HTRF detection was achieved using europium crypate-labeled anti-Ig monoclonal antibody (1 nM final) and allophycocyanin (APC) labeled anti-His monoclonal antibody (20 nM final). Antibodies were diluted in HTRF detection buffer and 5 μl was dispensed on top of binding reaction.

[1] = Table 10, Compound No. 116 variant macrocyclic peptides, read-out: HTRF Human PD-L1/PD-1 Binding Assay IC50
[2] = Table 8, Compound No. 1 variant macrocyclic peptides, read-out: HTRF Human PD-L1/PD-1 Binding Assay IC50
[3] = Table 9, Compound No. 71 variant macrocyclic peptides, read-out: HTRF Human PD-L1/PD-1 Binding Assay IC50

T1 sequence (Q9NZQ7 with tags, fused parts or gaps): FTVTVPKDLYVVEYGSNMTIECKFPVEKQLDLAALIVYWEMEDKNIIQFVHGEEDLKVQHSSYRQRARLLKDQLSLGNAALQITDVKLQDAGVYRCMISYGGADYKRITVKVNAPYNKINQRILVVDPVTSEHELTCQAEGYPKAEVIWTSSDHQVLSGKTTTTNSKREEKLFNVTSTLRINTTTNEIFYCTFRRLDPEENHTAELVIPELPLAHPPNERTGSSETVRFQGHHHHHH

Row | Compound | IC50 [2] [nM] | other results
1 | CC[C@H](C)[C@@H]1NC(=O)[C@H](CC(C)C)NC(=O)[C@H](Cc2ccccc2)NC(=O)CSC[C@@H](C(=O)NCC(N)=O)NC(=O)[C@H](CCCNC(=N)N)NC(=O)[C@H](Cc2ccccc2)NC(=O)[C@H](C(C)C)NC(=O)[C@H](CCCNC(=N)N)NC(=O)[C@H](CC(=O)O)NC(=O)[C@H](CC(C)C)NC(=O)[C@H]([C@@H](C)CC)NC(=O)[C@H](C(C)C)NC1=O [Compound No. 109] (HELM PEPTIDE1{[O=C(C[*:3])[*:2]].F.L.I.V.I.L.D.R.V.F.R.C.G.[am]}$PEPTIDE1,PEPTIDE1,1:R3-13:R3$$$V2.0) |  | IC50 (Table 7, Compound No. 99 variant macrocyclic peptides, read-out: HTRF Human PD-L1/PD-1 Binding Assay IC50): > 20000 nM
2 | CCCC[C@H]1C(=O)N(C)[C@@H](CCCC)C(=O)N[C@@H](CC(C)C)C(=O)N[C@H](C(=O)NCC(=O)NCCOCCOCCOCCOCCOCCOCCOCCOCCOCCOCCOCCOCCC(N)=O)CSCC(=O)N[C@@H](Cc2ccccc2)C(=O)N(C)[C@@H](C)C(=O)N[C@@H](CC(N)=O)C(=O)N2CCC[C@H]2C(=O)N[C@@H](Cc2cnc[nH]2)C(=O)N[C@@H](Cc2cnc[nH]2)C(=O)N[C@@H](CO)C(=O)N[C@@H](Cc2c[nH]c3ccccc23)C(=O)N[C@@H](CCCNC(=N)N)C(=O)N[C@@H](Cc2c[nH]c3ccccc23)C(=O)N1C [Compound No. 117] ({CH2CO}-F[NMeA]NPHHSWRW[NMeNle][NMeNle]LCG[PEG12]-NH2; thioether N-14) |  | IC50 [1]: 21 nM
3 | CCCC[C@H]1C(=O)N(C)[C@@H](CCCC)C(=O)N[C@@H](CCCNC(=N)N)C(=O)N[C@H](C(=O)NCC(N)=O)CSCC(=O)N[C@@H](Cc2ccccc2)C(=O)N(C)[C@@H](C)C(=O)N[C@@H](CC(N)=O)C(=O)N2CCCCC2C(=O)N[C@@H](Cc2cnc[nH]2)C(=O)N[C@@H](CC(C)C)C(=O)N(C)CC(=O)N[C@@H](Cc2c[nH]c3ccccc23)C(=O)N[C@@H](CO)C(=O)N[C@@H](Cc2c[nH]c3ccccc23)C(=O)N1C (some centres unmarked) [Compound No. 44] ({CH2CO}-F[NMeA]N[ξPip]HL[Sar]WSW[NMeNle][NMeNle]RCG-NH2; thioether N-14) | 34 | 
4 | CCCC[C@H]1C(=O)N(C)[C@@H](CCCC)C(=O)N[C@@H](CCCNC(=N)N)C(=O)N[C@@H](C(=O)NCC(N)=O)CSCC(=O)N[C@@H](Cc2c[nH]c3ccccc23)C(=O)N(C)[C@@H](C)C(=O)N[C@@H](CC(N)=O)C(=O)N2CCC[C@H]2C(=O)N[C@@H](Cc2cnc[nH]2)C(=O)N[C@@H](CC(C)C)C(=O)N(C)CC(=O)N[C@@H](Cc2c[nH]c3ccccc23)C(=O)N[C@@H](CO)C(=O)N[C@@H](Cc2c[nH]c3ccccc23)C(=O)N1C [Compound No. 25] ({CH2CO}-W[NMeA]NPHL[Sar]WSW[NMeNle][NMeNle]R[dC]G-NH2; thioether N-14) | 27 | 
5 | CCCC[C@H]1C(=O)N(C)[C@@H](CCCC)C(=O)N[C@@H](CCCNC(=N)N)C(=O)N[C@H](C(=O)NCC(N)=O)CSCC(=O)N[C@@H](Cc2ccccc2)C(=O)N(C)[C@@H](C)C(=O)N[C@@H](CC(N)=O)C(=O)N2CCC[C@H]2C(=O)N[C@@H](Cc2cnc[nH]2)C(=O)N[C@@H](CC(C)C)C(=O)N(C)CC(=O)N[C@@H](Cc2c[nH]c3ccccc23)C(=O)N[C@@H](CO)C(=O)N[C@@H](Cc2csc3ccccc23)C(=O)N1C [Compound No. 64] ({CH2CO}-F[NMeA]NPHL[Sar]WS[Bta][NMeNle][NMeNle]RCG-NH2; thioether N-14) | 7 | 
6 | CCCC[C@H]1C(=O)N(C)[C@@H](CCCC)C(=O)N[C@@H](CCCNC(=N)N)C(=O)N[C@H](C(=O)NCC(N)=O)CSCC(=O)N[C@@H](Cc2ccccc2)C(=O)N(C)[C@@H](C)C(=O)N[C@@H](CC(N)=O)C(=O)N2CCCC2C(=O)N[C@@H](Cc2cnc[nH]2)C(=O)N[C@@H](CC(C)C)C(=O)N(C)CC(=O)N[C@@H](C)C(=O)N[C@@H](CO)C(=O)N[C@@H](Cc2c[nH]c3ccccc23)C(=O)N1C (some centres unmarked) [Compound No. 15] ({CH2CO}-F[NMeA]N[ξP]HL[Sar]ASW[NMeNle][NMeNle]RCG-NH2; thioether N-14) | > 30000 | 
7 | CCCC[C@H]1C(=O)N(C)CC(=O)N[C@@H](CC(=O)O)C(=O)N[C@@H](C(C)C)C(=O)N(C)[C@@H](Cc2ccccc2)C(=O)N[C@@H](C)C(=O)N(C)CC(=O)N[C@@H](Cc2c[nH]c3ccccc23)C(=O)N[C@@H](Cc2ccc(O)cc2)C(=O)N[C@@H](CC(C)C)C(=O)N[C@H](C(=O)NCC(N)=O)CSCC(=O)N[C@@H](Cc2ccccc2)C(=O)N(C)[C@@H](Cc2ccccc2)C(=O)N1C [Compound No. 83] (HELM PEPTIDE1{[O=C(C[*:3])[*:2]].F.[meF].[CCCC[C@@H](C(=O)[*:2])N(C)[*:1]].[Sar].D.V.[meF].A.[Sar].W.Y.L.C.G.[am]}$PEPTIDE1,PEPTIDE1,1:R3-14:R3$$$V2.0) |  | IC50 [3]: 35 nM
8 | CCCC[C@H]1C(=O)N(C)[C@@H](CCCC)C(=O)N[C@@H](CCCNC(=N)N)C(=O)N[C@H](C(=O)NCC(N)=O)CSCC(=O)N[C@@H](Cc2ccccc2)C(=O)N(C)[C@@H](C)C(=O)N[C@@H](CC(N)=O)C(=O)N2CCC[C@@]2(C)C(=O)N[C@@H](Cc2cnc[nH]2)C(=O)N[C@@H](CC(C)C)C(=O)N(C)CC(=O)N[C@@H](Cc2c[nH]c3ccccc23)C(=O)N[C@@H](CO)C(=O)N[C@@H](Cc2c[nH]c3ccccc23)C(=O)N1C [Compound No. 49] ({CH2CO}-F[NMeA]N[αMeP]HL[Sar]WSW[NMeNle][NMeNle]RCG-NH2; thioether N-14) | 34 | 
9 | CCCC[C@H]1C(=O)N(C)CC(=O)N[C@@H](CC(=O)O)C(=O)N[C@@H](C(C)C)C(=O)N(C)[C@@H](Cc2ccccc2)C(=O)N[C@@H](Cc2ccc(O)cc2)C(=O)N(C)CC(=O)N[C@@H](Cc2c[nH]c3ccccc23)C(=O)N[C@@H](Cc2ccc(O)cc2)C(=O)N[C@@H](CC(C)C)C(=O)N[C@H](C(=O)NCC(=O)NCCOCCOCCOCCOCCOCCOCCOCCOCCOCCOCCOCCOCCC(N)=O)CSCC(=O)N[C@@H](Cc2ccccc2)C(=O)N(C)[C@@H](Cc2ccccc2)C(=O)N1C [Compound No. 118] ({CH2CO}-F[NMeF][NMeNle][Sar]DV[NMeF]Y[Sar]WYLCG[PEG12]-NH2; thioether N-13) |  | IC50 [1]: 3 nM
10 | CCCC[C@H]1C(=O)NCC(=O)N[C@@H](CC(=O)O)C(=O)N[C@@H](C(C)C)C(=O)N(C)[C@@H](Cc2ccccc2)C(=O)N[C@@H](Cc2ccc(O)cc2)C(=O)N(C)CC(=O)N[C@@H](Cc2c[nH]c3ccccc23)C(=O)N[C@@H](Cc2ccc(O)cc2)C(=O)N[C@@H](CC(C)C)C(=O)N[C@H](C(=O)NCC(N)=O)CSCC(=O)N[C@@H](Cc2ccccc2)C(=O)N(C)[C@@H](Cc2ccccc2)C(=O)N1C [Compound No. 78] (HELM PEPTIDE1{[O=C(C[*:3])[*:2]].F.[meF].[CCCC[C@@H](C(=O)[*:2])N(C)[*:1]].G.D.V.[meF].Y.[Sar].W.Y.L.C.G.[am]}$PEPTIDE1,PEPTIDE1,1:R3-14:R3$$$V2.0) |  | IC50 [3]: 14 nM
11 | CCCC[C@H]1C(=O)N(C)[C@@H](CCCC)C(=O)N[C@@H](CCCNC(=N)N)C(=O)N[C@H](C(=O)NCC(N)=O)CSCC(=O)N[C@@H](Cc2ccc(Cl)cc2)C(=O)N(C)[C@@H](C)C(=O)N[C@@H](CC(N)=O)C(=O)N2CCC[C@H]2C(=O)N[C@@H](Cc2cnc[nH]2)C(=O)N[C@@H](CC(C)C)C(=O)N2C[C@H](O)C[C@H]2C(=O)N[C@@H](Cc2c[nH]c3ccccc23)C(=O)N[C@@H](CO)C(=O)N[C@@H](Cc2csc3ccccc23)C(=O)N1C [Example 1125] ({CH2CO}-[Phe(4-Cl)][NMeA]NPHL[Hyp]WS[Bta][NMeNle][NMeNle]RCG-NH2; thioether N-14) |  | IC50 (read-out: HTRF IC50 value): 5.05 nM
12 | CCCC[C@H]1C(=O)N(C)[C@@H](CCCC)C(=O)N[C@@H](CCCNC(=N)N)C(=O)N[C@H](C(=O)NCC(N)=O)CSCC(=O)N[C@@H](Cc2ccccc2)C(=O)N(C)[C@@H](C)C(=O)N[C@@H](CC(N)=O)C(=O)N2C[C@H](N)CC2C(=O)N[C@@H](Cc2cnc[nH]2)C(=O)N[C@@H](CC(C)C)C(=O)N(C)CC(=O)N[C@@H](Cc2c[nH]c3ccccc23)C(=O)N[C@@H](CO)C(=O)N[C@@H](Cc2c[nH]c3ccccc23)C(=O)N1C (stereo partly drawn) [Compound No. 48] ({CH2CO}-F[NMeA]N[ξPro(4R-NH2)]HL[Sar]WSW[NMeNle][NMeNle]RCG-NH2; thioether N-14) | 40 | 
13 | CCCC[C@H]1C(=O)N[C@@H](CCCNC(=N)N)C(=O)N[C@H](C(=O)NCC(N)=O)CSCC(=O)N[C@@H](Cc2ccccc2)C(=O)N(C)[C@@H](C)C(=O)N[C@@H](CC(N)=O)C(=O)N2CCC[C@H]2C(=O)N[C@@H](Cc2cnc[nH]2)C(=O)N[C@@H](CC(C)C)C(=O)N(C)CC(=O)N[C@@H](Cc2c[nH]c3ccccc23)C(=O)N[C@@H](CO)C(=O)N[C@@H](Cc2c[nH]c3ccccc23)C(=O)N(C)[C@@H](Cc2ccccc2)C(=O)N1C [Compound No. 67] (HELM PEPTIDE1{[O=C(C[*:3])[*:2]].F.[meA].N.P.H.L.[Sar].W.S.W.[meF].[CCCC[C@@H](C(=O)[*:2])N(C)[*:1]].R.C.G.[am]}$PEPTIDE1,PEPTIDE1,1:R3-15:R3$$$V2.0) | 108 | 
14 | CCCC[C@H]1C(=O)N(C)[C@@H](CCCC)C(=O)N[C@@H](CCCNC(=N)N)C(=O)N[C@H](C(=O)NCC(N)=O)CSCC(=O)N[C@@H](Cc2ccc(C)cc2)C(=O)N(C)[C@@H](C)C(=O)N[C@@H](CC(N)=O)C(=O)N2CCC[C@H]2C(=O)N[C@@H](Cc2cnc[nH]2)C(=O)N[C@@H](CC(C)C)C(=O)N(C)CC(=O)N[C@@H](Cc2c[nH]c3ccccc23)C(=O)N[C@@H](CO)C(=O)N[C@@H](Cc2c[nH]c3ccccc23)C(=O)N1C [Compound No. 36] ({CH2CO}-[Phe(4-Me)][NMeA]NPHL[Sar]WSW[NMeNle][NMeNle]RCG-NH2; thioether N-14) | 9 | 
